The NIST ThermoML archive (doi:10.1021/acs.jced.6b00718)
Numbers after ± are expanded uncertainties.

Assay: xn = mol fraction of the nth substance listed
Details: Liquid; for electrical conductivity: 100 kPa, Alternating current cell with electrodes, x2 = 0.2589; for viscosity / mass density: 101 kPa; for viscosity: Falling or rolling sphere viscometry; for mass density: Vibrating tube method

N#CCCCC#N [pentanedinitrile] + CCCC[N+]1(C)CCCC1.O=S(=O)([N-]S(=O)(=O)C(F)(F)F)C(F)(F)F
Details | electrical conductivity [S/m]
292.9 K | 0.572 ± 0.014
297.4 K | 0.651 ± 0.016
304.3 K | 0.782 ± 0.018
314.5 K | 1 ± 0.022
323.2 K | 1.21 ± 0.026
336 K | 1.55 ± 0.032

Details | mass density [kg/m3] | viscosity [mPa·s]
293.15 K, x2 = 0 | 987 ± 2 | 6.97 ± 0.42
293.15 K, x2 = 0.1003 | 1094.2 ± 3.1 | 9.92 ± 0.61
293.15 K, x2 = 0.1997 | 1167.5 ± 2.8 | 13.34 ± 0.82
293.15 K, x2 = 0.2999 | 1222.5 ± 2.7 | 17.57 ± 1.1
293.15 K, x2 = 0.4002 | 1266.7 ± 2.7 | 22.88 ± 1.4
293.15 K, x2 = 0.5006 | 1300.5 ± 2.7 | 28.92 ± 1.8
293.15 K, x2 = 0.6003 | 1327.5 ± 2.8 | 38.47 ± 2.4
293.15 K, x2 = 0.6998 | 1349.1 ± 2.8 | 48.33 ± 2.9
293.15 K, x2 = 0.8004 | 1368.5 ± 2.8 | 61.37 ± 3.7
293.15 K, x2 = 0.9002 | 1385.4 ± 2.8 | 78.19 ± 4.9
298.15 K, x2 = 0 | 983.1 ± 2 | 6.12 ± 0.37
298.15 K, x2 = 0.1003 | 1090.3 ± 3.1 | 8.55 ± 0.52
298.15 K, x2 = 0.1997 | 1163.3 ± 2.8 | 11.42 ± 0.7
298.15 K, x2 = 0.2999 | 1218.1 ± 2.7 | 14.81 ± 0.9
298.15 K, x2 = 0.4002 | 1262.2 ± 2.7 | 19.17 ± 1.2
298.15 K, x2 = 0.5006 | 1296.1 ± 2.7 | 23.95 ± 1.5
298.15 K, x2 = 0.6003 | 1323.1 ± 2.7 | 31.5 ± 1.9
298.15 K, x2 = 0.6998 | 1344.8 ± 2.8 | 39.56 ± 2.4
298.15 K, x2 = 0.8004 | 1364.3 ± 2.8 | 49.4 ± 3
298.15 K, x2 = 0.9002 | 1380.9 ± 2.8 | 62.15 ± 3.8
303.15 K, x2 = 0 | 979.1 ± 2 | 5.39 ± 0.33
303.15 K, x2 = 0.1003 | 1086.2 ± 3.1 | 7.42 ± 0.45
303.15 K, x2 = 0.1997 | 1159 ± 2.8 | 9.83 ± 0.6
303.15 K, x2 = 0.2999 | 1213.8 ± 2.7 | 12.69 ± 0.77
303.15 K, x2 = 0.4002 | 1257.9 ± 2.7 | 16.22 ± 0.99
303.15 K, x2 = 0.5006 | 1291.7 ± 2.7 | 20.1 ± 1.2
303.15 K, x2 = 0.6003 | 1318.6 ± 2.7 | 26.13 ± 1.6
303.15 K, x2 = 0.6998 | 1340.3 ± 2.8 | 32.56 ± 2
303.15 K, x2 = 0.8004 | 1359.8 ± 2.8 | 40.38 ± 2.5
303.15 K, x2 = 0.9002 | 1376.4 ± 2.8 | 50.27 ± 3
313.15 K, x2 = 0 | 971.2 ± 2 | 4.25 ± 0.26
313.15 K, x2 = 0.1003 | 1077.9 ± 3.1 | 5.78 ± 0.35
313.15 K, x2 = 0.1997 | 1150.5 ± 2.8 | 7.46 ± 0.45
313.15 K, x2 = 0.2999 | 1205.1 ± 2.7 | 9.52 ± 0.58
313.15 K, x2 = 0.4002 | 1249 ± 2.7 | 11.97 ± 0.73
313.15 K, x2 = 0.5006 | 1282.8 ± 2.7 | 14.66 ± 0.89
313.15 K, x2 = 0.6003 | 1309.7 ± 2.7 | 18.67 ± 1.1
313.15 K, x2 = 0.6998 | 1331.3 ± 2.7 | 22.97 ± 1.4
313.15 K, x2 = 0.8004 | 1350.8 ± 2.8 | 28.01 ± 1.7
313.15 K, x2 = 0.9002 | 1367.2 ± 2.8 | 34.37 ± 2.1
323.15 K, x2 = 0 | 963.4 ± 1.9 | 3.47 ± 0.21
323.15 K, x2 = 0.1003 | 1069.7 ± 3 | 4.6 ± 0.28
323.15 K, x2 = 0.1997 | 1142 ± 2.8 | 5.84 ± 0.36
323.15 K, x2 = 0.2999 | 1196.5 ± 2.7 | 7.39 ± 0.45
323.15 K, x2 = 0.4002 | 1240.3 ± 2.7 | 9.16 ± 0.56
323.15 K, x2 = 0.5006 | 1274 ± 2.7 | 11.11 ± 0.68
323.15 K, x2 = 0.6003 | 1300.9 ± 2.7 | 13.88 ± 0.85
323.15 K, x2 = 0.6998 | 1322.5 ± 2.7 | 16.93 ± 1
323.15 K, x2 = 0.8004 | 1342 ± 2.8 | 18.72 ± 1.9
323.15 K, x2 = 0.9002 | 1358.2 ± 2.8 | 24.65 ± 1.5
333.15 K, x2 = 0 | 955.6 ± 1.9 | 2.88 ± 0.17
333.15 K, x2 = 0.1003 | 1061.5 ± 3 | 3.72 ± 0.23
333.15 K, x2 = 0.1997 | 1133.7 ± 2.7 | 4.71 ± 0.29
333.15 K, x2 = 0.2999 | 1188 ± 2.7 | 5.85 ± 0.36
333.15 K, x2 = 0.4002 | 1231.7 ± 2.7 | 7.27 ± 0.44
333.15 K, x2 = 0.5006 | 1265.2 ± 2.7 | 8.67 ± 0.53
333.15 K, x2 = 0.6003 | 1291.9 ± 2.7 | 10.69 ± 0.65
333.15 K, x2 = 0.6998 | 1313.8 ± 2.7 | 13.01 ± 0.79
333.15 K, x2 = 0.8004 | 1333 ± 2.7 | 14.2 ± 1.4
333.15 K, x2 = 0.9002 | – | 18.39 ± 1.1
